{
  "source": "patent US12636446B2",
  "about": "“Devices for evaporation and inhalation of nicotine” (Emplicure AB, priority 2016, dated 2026)",
  "key": {"[1]": {"text": "Calcium sulphate alpha hemihydrate (CaS) was obtained from Bo Ehrlander AB (Sweden). Clonidine hydrochloride was obtained from PCAS (Finland). Shaped silicon rubbers were used as molds for coins (diameter: 12 mm, thickness: 2 mm). The calcium sulphate was mixed with powder of Clonidine hydrochloride (0.07 g Clonidine hydrochloride/g calcium sulphate) and deionised water (Liquid/Powder ratio of 0.4 (w/w)) to form a homogenous paste, which was used to fill the rubber molds. Once the paste had been applied, the molds were set to dry for at least 12 h under ambient conditions.\nThe oven temperature was set to approximately 250° C.\n(§1) Each coin was weighed and immersed into a beaker containing 200 ml of deionised water. […] The sample was characterized by Shimadzu LC-2030 (Germany) HPLC system with a Genesis C18 analytical column 4 μm (100×2.1 mm i.d.) with a mobile phase of acetonitrile/phosphoric acid, pH 3 (11/89). The wavelength was set to 220 nm.\nThe reference samples represent the amount of clonidine hydrochloride mg/g calcium sulphate that was loaded before heat treatment."}, "[2]": {"settings": "calcium sulphate coins, solution 50 μl, 5 mg/ml dispensed; oven approximately 250° C., 0 to 15 minutes", "protocol": "Calcium sulphate alpha hemihydrate (CaS) was obtained from Bo Ehrlander AB (Sweden). Clonidine hydrochloride was obtained from PCAS (Finland). Shaped silicon rubbers were used as molds for coins (diameter: 12 mm, thickness: 2 mm). The calcium sulphate was mixed with deionised water (Liquid/Powder ratio of 0.4 (w/w)) to form a homogenous paste, which was used to fill the rubber molds. When the paste was applied, the molds were set to dry for at least 12 h under ambient conditions.\nClonidine hydrochloride solution (50 μl, 5 mg/ml) was dispensed onto the calcium sulphate coins. When the solution was applied, the coins were set to dry for at least 12 h under ambient conditions.\n(§2) The temperature was set to approximately 250° C.\nas §1\nThe reference samples represent the amount of clonidine hydrochloride that was loaded before heat treatment."}, "[3]": {"settings": "for amount of nicotine detected in the reference sample / nicotine detected in coins after heating: pure nicotine (20 mg) dispensed; for amount of nicotine detected in the reference sample: not heated"}, "[4]": {"settings": "calcium sulphate rods soaked 24 hours in pure nicotine; heated 5*10 sec., maximum temperature 315° C.", "text": "Aluminium oxide ceramic rods and calcium sulphate rods were obtained as described in Example 3. Nicotine and nicotine solutions were supplied and applied, and nicotine levels were detected as described in Example 3.\nSamples were heated using a prototype e-cigarette device (X-Cube II, Smoke) obtained from Devex Mekatronik AB (Sweden). The device is derived from the commercially available e-cigarette X-Cube.\nThe sample in the device was heated up by a coil that is wrapped around the sample.\nThe end of the device was connected to a vial via a silicon hose. The vial contained 1 ml of deionised water. To simulate smoking a rod was put into the device and puffing was performed. Puffing involves a sequence of 5 puffs that are each 10 seconds long. After puffing, the hose was removed and flushed with the water. The water was analysed for concentration of nicotine."}, "[5]": {"settings": "calcium sulphate coins, nicotine solution 50 μl, 18 mg/ml dispensed; heated about 1 minute or about 5 minutes", "text": "Calcium sulphate coins were obtained as described in Example 3. For the indirect induction test a magnet was molded into the coin. Nicotine and nicotine solutions were supplied and applied, and nicotine levels were detected as described in Example 3.\nMetal plate for induction cooker was obtained from Haneström (Sweden). Induction cooker Wilfa ICP-2000 was obtained from Media Markt (Sweden). Magnets (10*1 mm, Samarium Cobalt magnets, 0.4 kg pull) were obtained from first4magnets (UK). IR-thermometer (MS6520A) was obtained from Mastech (USA).\nHeat treatment by indirect induction was carried out by placing a metal plate onto the induction cooker. The ceramic coins containing a magnet was applied onto the metal plate and heated on maximum effect (exact temperature was not measured; see FIG. 10)."}, "[6]": {"settings": "Liquid/Powder ratio 0.4 (w/w)", "protocol": "Calcium sulphate alpha hemihydrate (CaS) was obtained from Bo Ehrlander AB (Sweden). Shaped silicon rubbers were used as molds for coins (diameter: 12 mm, thickness: 2 mm). The calcium sulphate was mixed with a nicotine solution with a concentration of 5 or 20 mg/ml of nicotine (Liquid/Powder ratio of 0.4 (w/w)) to form a homogenous paste, which was filled in the rubber molds. Once the paste was applied, the molds were set to dry for at least 12 h under ambient conditions.\nThe temperature was set to approximately 200° C.\nThe sample was characterized by UV-spectrophotometer at a wavelength of 219 nm. The amount nicotine in the samples were then calculated."}, "[7]": {"test": "Oven heating of calcium sulphate coins pre-loaded with sumatriptan succinate; detection by UV", "assay_type": "physicochemical", "settings": "0.07 g sumatriptan succinate/g calcium sulphate, oven approximately 250° C.", "protocol": "as §2"}, "[8]": {"test": "Oven heating of Al2O3 rods soaked in sumatriptan succinate solution; detection by UV", "settings": "Al2O3 rods soaked in 20 mg/ml solution for 24 hours", "description": "The application of sumatriptan succinate was achieved by soaking the Al2O3 rods in a sumatriptan succinate solution with a concentration of 20 mg/ml. The volume of solution was around 100 μl but was not measured precisely; the volume was sufficient to fully immerse the rods. The samples were soaked for 24 hours in room temperature and thereafter the samples were dried for 24 hours, before heat treatment and/or analysis.\nThe temperature was set to approximately 300° C. […] The rods were heated in the oven for a period of time ranging from 0 to 15 minutes.\nAll sumatriptan release tests were carried out according to the same analytical method. The rods were immersed in a beaker containing 50 ml of deionised water. After 24 hours a sample of the water was taken out and filtered (pore size: 0.2 μm). The sample was characterized by UV-spectrophotometry at a wavelength of 282 nm. The amount sumatriptan succinate in the samples was then calculated. The reference samples represent the amount of sumatriptan succinate that was loaded before heat treatment. The difference between the amount of sumatriptan succinate detected in the heat-treated samples and the reference sample represents the amount of sumatriptan succinate that evaporated during the heat treatment."}, "[9]": {"settings": "calcium sulphate rods soaked in pure nicotine, oven approximately 200° C."}},
  "note": "Counter-ions that a name gives are not always drawn. Like-named read-outs stand apart in the source and are kept apart here.",
  "data": [
    {"compound": "Clc1cccc(Cl)c1N=C1NCCN1", "note": "[clonidine hydrochloride]", "values": [
      {"measurement": "amount of clonidine hydrochloride contained in coin", "setting": "[1]; calcium sulphate coins pre-loaded, 0.07 g clonidine hydrochloride/g calcium sulphate, coin approximately 0.3 g", "result": "approximately 17 mg"},
      {"measurement": "time within which almost all of the clonidine hydrochloride was released when heated", "setting": "[1]; pre-loaded calcium sulphate coins, oven approximately 250° C.", "result": "≤ 15", "unit": "min"},
      {"measurement": "amount of clonidine hydrochloride present in the coins during heating", "setting": "[2]", "result": "decreased significantly"}
    ]},
    {"compound": "CN1CCCC1c1cccnc1", "note": "(stereo not drawn) [nicotine]", "values": [
      {"measurement": "time within which almost all of the nicotine was released when heated", "setting": "[3]; aluminium oxide rods soaked in 6 mg/ml nicotine solution (diluted e-juice) 24 hours, oven approximately 200° C.", "result": "5 to 10", "unit": "min"},
      {"measurement": "amount of nicotine absorbed by rod", "setting": "[3]; aluminium oxide rods soaked in 6 mg/ml nicotine solution for 24 hours", "result": "approximately 135 μg nicotine/rod"},
      {"measurement": "amount of nicotine detected in the reference sample", "setting": "[3]; calcium sulphate coins", "result": "lower than 20 mg"},
      {"measurement": "nicotine detected in coins after heating", "setting": "[3]; calcium sulphate coins, oven approximately 200° C.", "result": "lower release of nicotine was detected after heating"},
      {"measurement": "amount of nicotine absorbed by rod", "setting": "[3]; calcium sulphate rods soaked in pure nicotine for 24 hours", "result": "approximately 20 mg nicotine/rod"},
      {"measurement": "nicotine release during heating", "setting": "[3]; [9]", "result": "Most of the nicotine was released"},
      {"measurement": "nicotine release, 5 min of heating compared to 1 min of heating", "setting": "[3]; [9]", "result": "a higher amount was released during 5 min of heating compared to 1 min of heating"},
      {"measurement": "amount of nicotine detected in the reference sample", "setting": "[3]; geopolymer coins", "result": "about 16 mg"},
      {"measurement": "nicotine detected in coins after heating", "setting": "[3]; geopolymer coins, oven approximately 200° C.", "result": "lower release of nicotine was detected after heating"},
      {"measurement": "nicotine release on heat treatment in e-cigarette device", "setting": "[4]", "result": "a heat treatment in the device will result in a nicotine release"},
      {"measurement": "nicotine release on induction heating, unheated plate", "setting": "[5]", "result": "Most of the nicotine was released within the first minute"},
      {"measurement": "amount of nicotine contained in coin", "setting": "[6]; calcium sulphate coins mixed with 5 mg/ml nicotine solution", "result": "approximately 180 μg"},
      {"measurement": "amount of nicotine contained in coin", "setting": "[6]; calcium sulphate coins mixed with 20 mg/ml nicotine solution", "result": "~390", "unit": "µg"}
    ]},
    {"compound": "CNS(=O)(=O)Cc1ccc2[nH]cc(CCN(C)C)c2c1", "note": "[sumatriptan succinate]", "values": [
      {"measurement": "time within which almost all of the Sumatriptan succinate was released when heated", "setting": "[7]", "result": "≤ 15", "unit": "min"},
      {"measurement": "amount of sumatriptan succinate absorbed by rod", "setting": "[8]", "result": "approximately 1 mg sumatriptan succinate/rod"}
    ]}
  ]
}
